Measured values as given in patent US20180085385A1, “GLUCOSE-SENSITIVE CELL PROTECTING AGENT” (THE UNIVERSITY OF TOKYO, priority 2015, published 2018).

Columns and labels:
[1] = tested on: orexin nerve cells differentiated from human iPS cells; experiment: Protection or recovery of orexin nerve cells under high glucose by various ManNAc derivatives (Example 3); assay type: cell-based; conditions: for recovery activity of orexin production (Hcrt expression intensity): 12-day course: high glucose 25 mM from day 0, compound 1 μM added from +day 8, harvested +day 12
Protocol: (§1) Total RNA was extracted from the harvested cells by using RNeasy plus Mini Kit (QIAGEN). Then, using SuperScript III First Strand Synthesis System (Invitrogen), a reverse transcription reaction was performed in a reaction mixture containing total RNA (1 μg) and Oligo (dT), whereby cDNA was synthesized.
(§2) PCR reaction was performed on a 10 μl scale, 1 U LA-Tag DNA Polymerase (Takara) was added to 0.5 μl of cDNA, 5 μl of 2×GC Buffer I, 200 μM of each dNTP, 1.5 mM MgCl2 and final concentration 0.2 μM of each primer and, after heat denaturation at 95° C. for 3 min, and PCR was performed under the conditions of (95° C. 30 sec, 55° C. 30 sec, 72° C. 30 sec)×35 cycles (20 cycles for Actb). The primers used are shown below.
(§3) Each PCR product was electrophoresed on 2% agarose gel and stained with ethidium bromide, and the bands were observed by UV irradiation.
The orexin nerve cells were cultured in a neuronal differentiation medium (G-MEM+10% KSR (KnockOut Serum Replacement, Invitrogen)) for 8 days or 12 days, and maintained in vitro. In this case, the glucose concentration of the medium was set to a high glucose concentration (25 mM), ManNAc or various ManNAc derivatives (each 1 μM) were added, and the cells were cultured. In the 8-day culture course, glucose and ManNAc or various ManNAc derivatives were added to the medium from the start of the culture (+day 0), the cells were harvested on +day 8 the orexin expression was analyzed. As a control, orexin nerve cells cultured at low glucose concentration (5 mM) were prepared. In the 12-day culture course, high glucose was added from the start of the culture (+day 0), ManNAc or various ManNAc derivatives were added to the medium from +day 8 from the start of the culture, the cells were harvested on +day 12, and the orexin expression was analyzed. As a control, orexin nerve cells cultured at low glucose concentration (5 mM) from +day 8 from the start of the culture were prepared. According to the expression analysis by the RT-PCR method described in Reference Example 1, the expression of Hcrt gene was examined. Based on the expression of Hcrt gene in orexin nerve cells at the start of the culture, expression of Hcrt gene in orexin nerve cells after culture with the addition of ManNAc or various ManNAc derivatives under high glucose conditions is shown by expression intensity (FIG. 3).

[2] = tested on: orexin nerve cells differentiated from human iPS cells; experiment: Disappearance of orexin nerve cells under high glucose concentration and protection or recovery from disappearance (Example 1); assay type: cell-based; conditions: for recovery of orexin nerve cells (expression of orexin): culture under high glucose concentration extended for 2 or 4 more days, compound then added to the medium; for disappearance of the orexin nerve cells (orexin (Hcrt) expression): high glucose concentration (25 mM), 8 days, addition concentration 10 μM ManNAc, 1 μM ManNAcF
Protocol: as §1, §2, §3
The orexin nerve cells were cultured in a neuronal differentiation medium (G-MEM+10% KSR (Knockout Serum Replacement, Invitrogen)) for 8 days, and maintained in vitro. In this case, the cells were divided based on the glucose concentration in the medium into two groups having low glucose concentration (5 mM) and high glucose concentration (25 mM) and cultured.

[3] = tested on: orexin nerve cells in the brain of diabetic model mice (db/db mouse); experiment: Protection of nerve cells from disappearance at individual level, high fat feed db/db mouse, in situ hybridization; assay type: in vivo; conditions: high fat feed 6 to 8 weeks of age, 5 μg/μl ManNAc containing drinking water
Protocol: To confirm effectiveness of ManNAc for nerve cell protection at an individual level, the number of orexin nerve cells and orexin expression were examined using genetically obese mouse (db/db mouse, hetero mouse as control, all male) (each group n=6). The breeding conditions of each group (6-8 weeks old) are as described below. […]
high fat feed+drinking water group high fat feed+5 μg/μl ManNAc containing drinking water group normal food+drinking water group normal food+5 μg/μl ManNAc containing drinking water group
Three individual mice from each group mentioned above were subjected to Nembutal anesthesia, and perfusion was fixed with formamide fixative (Genostaff). The brain was taken out, embedded in paraffin, and sections with 6 μm thickness in the sagittal direction were prepared. […]
was cloned into […] vector (Promega), and using DIG RNA Labeling Mix (Roche) and the plasmid as a template, digoxigenin-labeled RNA probe was prepared. […] The cells expressing orexin gene were counted, and the mean of 3 individuals and standard error were determined.

human iPS cells = experiment: Orexin cell induction from human iPS cells (SDIA differentiation culture, Hcrt RT-PCR); assay type: cell-based; conditions: for orexin cell induction activity (Hcrt expression): 8, 40, 200 nM, 1 μM and 5 μM instead of 1.0 mM ManNAc, compared to ManNAc
Protocol: Human iPS cell line 201B7 (HSP0001) was obtained from BioResource Center, RIKEN, Japan via National BioResource project (MEXT, Japan). Human iPS cells were maintained on a feeder layer of mitomycin C-treated STO/Neo resistant/LIF(SNL) feeder cells in primates ES medium (ReproCELL) supplemented with 5 ng/mL recombinant human bFGF (Wako). For differentiation induction into nerve by SDIA and BMP4 system, human iPS cells were cocultured with PA6 for 20 days. 5 nM BMP4 was supplemented from day 7. From the start of the differentiation culture (day 0), ManNAc was added to a neuronal differentiation medium to 1.0 mM, and the medium was exchanged on days 7, 10 and 14 of differentiation culture. In addition, 5 nM recombinant human BMP4 (Wako) was added from day 7 of the differentiation culture. On day 14 of the differentiation culture, EX-527 (SIGMA-ALDRICH) was added to neuronal differentiation medium to 50 nM, or BADGP (SIGMA-ALDRICH) was added to neuronal differentiation medium to 5 mM, and the cells were harvested on day 20 of the differentiation culture and subjected to RT-PCR.
as §1, §2, §3
According to the method described in Reference Example 1 except that ManNAc, ManNAcF, 5S-ManNAc, 5S-ManNAcF, ManNCOOMe or ManNCOOEt (8, 40, 200 nM, 1 μM and 5 μM, respectively) was added instead of 1.0 mM ManNAc, orexin cells were induced from human iPS cells. The expression of orexin gene (Hcrt) in the cells induced under the various conditions was examined.

[4] = tested on: renal proximal tubule epithelial cells derived from type II diabetes patients (D-RPTEC); experiment: Histone O-GlcNAc modification level in D-RPTEC by immunofluorescence staining; assay type: cell-based, human; conditions: D-RPTEC cultured 96 hr under high glucose (25 mM glucose)
Protocol: Normal human renal proximal tubule epithelial cells and RPTEC derived from type II diabetes patients (D-RPTEC) were purchased from Lonza. RPTEC and D-RPTEC maintained with REGM™ Renal Epithelial Cell proliferation Medium Bullet Kit (Lonza) were each seeded in a 4-well dish at 1×10^4 cells per 1 well, and cultured for 4 days in a control medium or high glucose medium (adjusted to final concentration of 25 mM with 2.5 M glucose solution).
The cultured cells were fixed with 4% para-formaldehyde for 20 min and, after a permeabilization treatment with 0.2% TritonX-100-PBS solution, treated overnight with a blocking solution [PBS(−) containing 5% bovine serum-derived albumin (BSA), 0.1% Tween20, 0.2% TritonX-100] at 4° C. Then, the cells were reacted with anti-histone O-GlcNAc antibody (20B2) diluted with 5% BSA-PBS(−)-0.1% Tween20 at 4° C. overnight, reacted with secondary antibody diluted with PBS(−) at room temperature for 1 hr. The nucleus was stained with 1 μg/ml DAPI (Dojindo) at room temperature for 20 min, mounted in mountant (VECTASHIELD), and slides were prepared. Observation was performed with an integrated confocal laser microscope (FV10i, OLYMPUS). After obtaining images, the number of O-GlcNAc signals in the nucleus was measured by image analysis software Cell Profiler (www.cellprofiler.org), and statistical processing was performed by Wilcoxon rank-sum test. […]

[5] = tested on: Gne/Mnk M712T homozygous mutant mouse; conditions: mutant mice otherwise did not survive beyond age 3 after birth; cited from earlier work

Row | Structure (SMILES) | recovery activity of orexin production (Hcrt expression intensity) [1] | recovery of orexin nerve cells (expression of orexin) [2] | orexin cell induction activity (Hcrt expression) (human iPS cells) | further results
1 | CC(=O)NC1C(O)SC(CO)[C@@H](O)[C@@H]1O (stereo partly drawn) [5S-ManNAc] | low activity | – | – | –
2 | CC(=O)N[C@H]1[C@@H](OCc2ccccc2)O[C@H](CO)[C@H](O)[C@@H]1O [BADGP, reference compound] | – | completely ineffective | – | –
3 | NC(=O)C1CCCc2c1[nH]c1ccc(Cl)cc21 (stereo not shown) [EX-527, reference compound] | – | completely ineffective | – | –
4 | CC(=O)N[C@@H]1C(O)O[C@H](CO)[C@@H](O)[C@@H]1O (stereo partly drawn) [ManNAc, N-acetyl-D-mannosamine] | higher | expression of orexin was observed | – | disappearance of the orexin nerve cells (orexin (Hcrt) expression) [2]: disappearance of the orexin nerve cells could be avoided; decrease in the number of orexin nerve cells and the orexin gene expression [3]: suppressed; expression of orexin gene (Hcrt) (human iPS cells; 1.0 mM ManNAc from day 0, EX-527 50 nM or BADGP 5 mM from day 14, harvested day 20): expression of Hcrt was observed; histone O-GlcNAc modification level [4]: increase in the histone O-GlcNAc modification level was observed; survival of Gne/Mnk M712T homozygous mutant mice [5]: rescued the mice
5 | O=C(CF)NC1C(O)OC(CO)[C@@H](O)[C@@H]1O (stereo partly shown) [ManNAcF] | highest activity | expression of orexin was observed | higher orexin cell induction activity as compared to ManNAc | disappearance of the orexin nerve cells (orexin (Hcrt) expression) [2]: disappearance of the orexin nerve cells could be avoided
6 | CCOC(=O)NC1C(O)OC(CO)[C@@H](O)C1O (stereo partly shown) [ManNCOOEt] | low activity | – | higher orexin cell induction activity as compared to ManNAc | –
7 | COC(=O)NC1C(O)OC(CO)[C@@H](O)C1O (stereo partly shown) [ManNCOOMe] | low activity | – | higher orexin cell induction activity as compared to ManNAc | maintenance of orexin production (Hcrt expression intensity) ([1]; 8-day course: high glucose 25 mM and compound 1 μM from +day 0, harvested +day 8): orexin production was maintained except for ManNCOOMe
